Data from the NIST ThermoML archive (doi:10.1021/je300504f).
Where “and” joins values, the source holds several entries; their conditions need not be identical. Equal values may be shown once.

What was measured:
[1] = Crystal; for Normal melting temperature: DTA
[2] = Molar enthalpy of transition or fusion; details: Crystal; DSC

Fc1c(F)c(F)c(-c2c(F)c(F)c(F)c(F)c2F)c(F)c1F [perfluorobiphenyl]
Details	Molar enthalpy of transition or fusion [kcal/mol]	Normal melting temperature [°C]
[1]	–	66.5
[2]	4.9	–

FC(F)(F)C(F)(F)C(F)(F)C(F)(F)C(F)(F)C(F)(F)C(F)(F)C(F)(F)C(F)(F)C(F)(F)C(F)(F)C(F)(F)C(F)(F)C(F)(F)C(F)(F)C(F)(F)C(F)(F)C(F)(F)C(F)(F)C(F)(F)C(F)(F)C(F)(F)C(F)(F)C(F)(F)F [perfluorotetracosane]
Details	Molar enthalpy of transition or fusion [kcal/mol]	Normal melting temperature [°C]
[1]	–	188.0
[2]	15.1	–

FC(F)(F)C(F)(F)C(F)(F)C(F)(F)C(F)(F)C(F)(F)C(F)(F)C(F)(F)C(F)(F)C(F)(F)C(F)(F)C(F)(F)C(F)(F)C(F)(F)C(F)(F)C(F)(F)C(F)(F)C(F)(F)C(F)(F)C(F)(F)F [dotetracontafluoroeicosane]
Details	Molar enthalpy of transition or fusion [kcal/mol]	Normal melting temperature [°C]
[1]	–	163.1
[2]	12	–

FC(F)(F)C(F)(F)C(F)(F)C(F)(F)C(F)(F)C(F)(F)C(F)(F)C(F)(F)C(F)(F)C(F)(F)C(F)(F)C(F)(F)C(F)(F)C(F)(F)F [triacontafluorotetradecane]
[1]
Details	vapor or sublimation pressure
313.2 K	0.00349 kPa
318.2 K	0.00664 kPa
328.2 K	0.0191 kPa
333.2 K	0.0315 kPa
338.2 K	0.053 kPa
343.2 K	0.0971 kPa
348.2 K	0.161 kPa
353.1 K	0.2493 kPa
358.2 K	0.4128 kPa and 0.4025 kPa

Details	Molar enthalpy of transition or fusion [kcal/mol]	Normal melting temperature [°C]
[1]	–	102.5
[2]	7.53	–

FC(F)(F)C(F)(F)C(F)(F)C(F)(F)C(F)(F)C(F)(F)C(F)(F)C(F)(F)C(F)(F)C(F)(F)C(F)(F)C(F)(F)F [hexacosafluorododecane]
[1]
Details	vapor or sublimation pressure [kPa]
313.3 K	0.0672
318.2 K	0.1074
323.2 K	0.1781
328.2 K	0.2832
333.2 K	0.4571
338.2 K	0.7269
343.2 K	1.039
348.2 K	1.63

Details	Molar enthalpy of transition or fusion [kcal/mol]	Normal melting temperature [°C]
[1]	–	73.5
[2]	5.78	–

FC(F)(F)C(F)(F)C(F)(F)C(F)(F)C(F)(F)C(F)(F)C(F)(F)C(F)(F)C(F)(F)C(F)(F)C(F)(F)C(F)(F)C(F)(F)F [perfluorotridecane]
[1]
Details	vapor or sublimation pressure [kPa]
313.2 K	0.0143
318.4 K	0.0253
323.4 K	0.0443
329.3 K	0.0796
333.5 K	0.1199
339.3 K	0.2077
343.3 K	0.297
349.2 K	0.5217
354.1 K	0.8357
358.2 K	1.147

Details	Molar enthalpy of transition or fusion [kcal/mol]	Normal melting temperature [°C]
[1]	–	88.6
[2]	6.67	–

FC(F)(F)C(F)(F)C(F)(F)C(F)(F)C(F)(F)C(F)(F)C(F)(F)C(F)(F)C(F)(F)C(F)(F)C(F)(F)C(F)(F)C(F)(F)C(F)(F)C(F)(F)F [perfluoropentadecane]
[1]
Details	vapor or sublimation pressure [kPa]
312.1 K	0.0006
323.2 K	0.0025
333.2 K	0.00776
338.2 K	0.0139
343.3 K	0.0238
348.2 K	0.0408
353.1 K	0.0662
358.2 K	0.1119
363.2 K	0.1796
368.2 K	0.2908

Details	Molar enthalpy of transition or fusion [kcal/mol]	Normal melting temperature [°C]
[1]	–	115.0
[2]	8.39	–

FC(F)(F)C(F)(F)C(F)(F)C(F)(F)C(F)(F)C(F)(F)C(F)(F)C(F)(F)C(F)(F)C(F)(F)C(F)(F)C(F)(F)C(F)(F)C(F)(F)C(F)(F)C(F)(F)F [tetratriacontafluorohexadecane]
Details	Molar enthalpy of transition or fusion [kcal/mol]	Normal melting temperature [°C]
[1]	–	126.6
[2]	9.25	–
